Test results reported in patent publication US11135234B2, “Effective aminoglycoside antibiotic for multidrug-resistant bacteria” (MICROBIAL CHEMISTRY RESEARCH FOUNDATION, priority 2015, dated 2021).
Converted amounts (≈) assume the structure as drawn.

Assays:
E. coli JM109/pMW218 = assay: MIC, agar plate dilution method, E. coli JM109/pMW218; type: cell-based, Escherichia coli; conditions: for MIC: Escherichia coli, JM109/PMW218, E. coli JM109/pMW218, Sensitive bacterium, read-out: minimal inhibitory concentration (MIC); for minimal inhibitory concentration (MIC): E. coli JM109/pMW218, Sensitive bacterium
How it was run: (§1)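 Agar plate dilution per Japan Society of Chemotherapy standard; read-out = MIC in μg/mL.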

P. aeruginosa MSC01035 = assay: MIC, agar plate dilution method, P. aeruginosa MSC01035; type: cell-based, Pseudomonas aeruginosa; conditions: P. aeruginosa MSC01035, ABK-resistant; for MIC: Pseudomonas aeruginosa, read-out: minimal inhibitory concentration (MIC)
How it was run: as §1

[1] = system: A. baumannii ATCC BAA-1710; assay: MIC, agar plate dilution method, A. baumannii ATCC BAA-1710; type: cell-based, Acinetobacter baumannii; conditions: for MIC: Acinetobacter baumannii, ATCCBAA1710, A. baumannii ATCC BAA-1710, MDRA, read-out: minimal inhibitory concentration (MIC); for minimal inhibitory concentration (MIC): A. baumannii ATCC BAA-1710, MDRA
How it was run: as §1

S. aureus RN4220/pMS520 = assay: MIC, agar plate dilution method, S. aureus RN4220/pMS520; type: cell-based, Staphylococcus aureus; conditions: for MIC: Staphylococcus aureus, MRSA, read-out: minimal inhibitory concentration (MIC), S. aureus RN4220/pMS520, MRSA; for minimal inhibitory concentration (MIC): S. aureus RN4220/pMS520, MRSA
How it was run: as §1

P. aeruginosa PAO1/GN315 = assay: MIC, agar plate dilution method, P. aeruginosa PAO1/GN315; type: cell-based, Pseudomonas aeruginosa; conditions: for MIC: Pseudomonas aeruginosa, read-out: minimal inhibitory concentration (MIC), P. aeruginosa PAO1/GN315, AMK-resistant; for minimal inhibitory concentration (MIC): P. aeruginosa PAO1/GN315, AMK-resistant
How it was run: as §1

P. aeruginosa PAO1 = assay: MIC, agar plate dilution method, P. aeruginosa PAO1; type: cell-based, Pseudomonas aeruginosa; conditions: for MIC: Pseudomonas aeruginosa, PAO1, P. aeruginosa PAO1, Sensitive bacterium, read-out: minimal inhibitory concentration (MIC); for minimal inhibitory concentration (MIC): P. aeruginosa PAO1, Sensitive bacterium
How it was run: as §1

S. marcescens GN6944 = assay: MIC, agar plate dilution method, S. marcescens GN6944; type: cell-based, Serratia marcescens; conditions: S. marcescens GN6944, GM-resistant; for MIC: Serratia marcescens, read-out: minimal inhibitory concentration (MIC)
How it was run: as §1

P. aeruginosa MSC17707 = assay: MIC, agar plate dilution method, P. aeruginosa MSC17707; type: cell-based, Pseudomonas aeruginosa; conditions: for MIC: Pseudomonas aeruginosa, MSC17707, P. aeruginosa MSC17707, AMK-resistant, read-out: minimal inhibitory concentration (MIC); for minimal inhibitory concentration (MIC): P. aeruginosa MSC17707, AMK-resistant
How it was run: as §1

[2] = system: K. pneumoniae ATCC BAA-1705; assay: MIC, agar plate dilution method, K. pneumoniae ATCC BAA-1705; type: cell-based, Klebsiella pneumoniae; conditions: for MIC: Klebsiella pneumoniae, ATCCBAA1705, K. pneumoniae ATCC BAA-1705, KPC-producing strain, read-out: minimal inhibitory concentration (MIC); for minimal inhibitory concentration (MIC): K. pneumoniae ATCC BAA-1705, KPC-producing strain
How it was run: as §1

E. faecium ATCC19434 = assay: MIC, agar plate dilution method, E. faecium ATCC19434; type: cell-based, Enterococcus faecium; conditions: for MIC: Enterococcus faecium, ATCC19434, E. faecium ATCC19434, read-out: minimal inhibitory concentration (MIC); for minimal inhibitory concentration (MIC): E. faecium ATCC19434
How it was run: as §1

S. aureus RN4220 = assay: MIC, agar plate dilution method, S. aureus RN4220; type: cell-based, Staphylococcus aureus; conditions: for MIC: Staphylococcus aureus, RN4220, S. aureus RN4220, Sensitive bacterium, read-out: minimal inhibitory concentration (MIC); for minimal inhibitory concentration (MIC): S. aureus RN4220, Sensitive bacterium
How it was run: as §1

S. aureus MF490 = assay: MIC, agar plate dilution method, S. aureus MF490; type: cell-based, Staphylococcus aureus; conditions: for MIC: Staphylococcus aureus, MRSA, read-out: minimal inhibitory concentration (MIC); for minimal inhibitory concentration (MIC): S. aureus MF490, MRSA
How it was run: as §1

[3] = system: K. pneumoniae ATCC BAA-2146; assay: MIC, agar plate dilution method, K. pneumoniae ATCC BAA-2146; type: cell-based, Klebsiella pneumoniae; conditions: for MIC: Klebsiella pneumoniae, ATCCBAA2146, K. pneumoniae ATCC BAA-2146, NDM-producing strain, read-out: minimal inhibitory concentration (MIC); for minimal inhibitory concentration (MIC): K. pneumoniae ATCC BAA-2146, NDM-producing strain
How it was run: as §1

S. marcescens TH-0447 = assay: MIC, agar plate dilution method, S. marcescens TH-0447; type: cell-based, Serratia marcescens; conditions: for MIC: Serratia marcescens, TH0447, S. marcescens TH-0447, AMK-resistant, read-out: minimal inhibitory concentration (MIC); for minimal inhibitory concentration (MIC): S. marcescens TH-0447, AMK-resistant
How it was run: as §1

Row | SMILES | MIC (E. coli JM109/pMW218) | MIC (P. aeruginosa MSC01035) | MIC [1] | MIC (S. aureus RN4220/pMS520) | MIC (P. aeruginosa PAO1/GN315) | MIC (P. aeruginosa PAO1) | minimal inhibitory concentration (MIC) (E. coli JM109/pMW218) | minimal inhibitory concentration (MIC) (P. aeruginosa MSC01035) | minimal inhibitory concentration (MIC) [1] | minimal inhibitory concentration (MIC) (S. aureus RN4220/pMS520) | minimal inhibitory concentration (MIC) (P. aeruginosa PAO1/GN315) | minimal inhibitory concentration (MIC) (P. aeruginosa PAO1) | minimal inhibitory concentration (MIC) (S. marcescens GN6944) | minimal inhibitory concentration (MIC) (P. aeruginosa MSC17707) | minimal inhibitory concentration (MIC) [2] | minimal inhibitory concentration (MIC) (E. faecium ATCC19434) | minimal inhibitory concentration (MIC) (S. aureus RN4220) | minimal inhibitory concentration (MIC) (S. aureus MF490) | minimal inhibitory concentration (MIC) [3] | minimal inhibitory concentration (MIC) (S. marcescens TH-0447) | also measured
1 | CNC1C(O[C@H]2OC(CO)[C@@H](NC(=O)CCN)[C@H](O)C2O)O[C@H]2C[C@H](N)[C@@H](O[C@@H]3C(N)C[C@@H](N)C(O)[C@H]3O)OC2C1O (stereo partly drawn) [Compound V1-m, 4″-N-(β-alanyl)-5-epiapramycin] | 1 µg/mL (≈ 1.64 µM) | 4 µg/mL (≈ 6.55 µM) | 8 µg/mL (≈ 13.1 µM) | 2 µg/mL (≈ 3.28 µM) | 4 µg/mL (≈ 6.55 µM) | 2 µg/mL (≈ 3.28 µM) | – | – | – | – | – | – | – | – | – | – | – | – | – | – | MIC (S. marcescens GN6944): 8 µg/mL (≈ 13.1 µM); MIC (P. aeruginosa MSC17707): 2 µg/mL (≈ 3.28 µM); MIC [2]: 1 µg/mL (≈ 1.64 µM); MIC (E. faecium ATCC19434): 16 µg/mL (≈ 26.2 µM); MIC (S. aureus RN4220): 2 µg/mL (≈ 3.28 µM); MIC (S. aureus MF490): 8 µg/mL (≈ 13.1 µM); MIC [3]: 1 µg/mL (≈ 1.64 µM); MIC (S. marcescens TH-0447): 8 µg/mL (≈ 13.1 µM)
2 | CNC1C(O[C@H]2OC(CO)[C@@H](NC(=O)CN)[C@H](O)C2O)O[C@H]2CC(N)[C@@H](O[C@@H]3C(N)C[C@@H](N)C(O)[C@H]3O)OC2C1O (single isomer, unassigned) [Compound V1-a, 4″-N-glycylapramycin] | – | – | – | – | – | – | 2 µg/mL (≈ 3.35 µM) | 4 µg/mL (≈ 6.7 µM) | 8 µg/mL (≈ 13.4 µM) | 4 µg/mL (≈ 6.7 µM) | 4 µg/mL (≈ 6.7 µM) | 4 µg/mL (≈ 6.7 µM) | 8 µg/mL (≈ 13.4 µM) | 8 µg/mL (≈ 13.4 µM) | 2 µg/mL (≈ 3.35 µM) | 32 µg/mL (≈ 53.6 µM) | 4 µg/mL (≈ 6.7 µM) | 16 µg/mL (≈ 26.8 µM) | 2 µg/mL (≈ 3.35 µM) | 8 µg/mL (≈ 13.4 µM) | –
3 | CNC1C(CO)OC(OC2OC3CC(N)C(OC4C(N)CC(N)C(O)C4O)OC3C(O)C2NC)C(O)C1O (stereo not shown) [Compound A4-a, 4″-N-methylapramycin] | – | – | – | – | – | – | 2 µg/mL (≈ 3.61 µM) | 8 µg/mL (≈ 14.5 µM) | 16 µg/mL (≈ 28.9 µM) | 4 µg/mL (≈ 7.23 µM) | 8 µg/mL (≈ 14.5 µM) | 8 µg/mL (≈ 14.5 µM) | 8 µg/mL (≈ 14.5 µM) | 8 µg/mL (≈ 14.5 µM) | 2 µg/mL (≈ 3.61 µM) | 32 µg/mL (≈ 57.8 µM) | 4 µg/mL (≈ 7.23 µM) | 16 µg/mL (≈ 28.9 µM) | 2 µg/mL (≈ 3.61 µM) | 8 µg/mL (≈ 14.5 µM) | –
4 | CNC1C(O[C@H]2OC(CO)[C@@H](NC(CN)CN)[C@H](O)C2O)O[C@H]2CC(N)[C@@H](O[C@@H]3C(N)C[C@@H](N)C(O)[C@H]3O)OC2C1O (stereo partly shown) [Compound A4-d, 4″-N-(1,3-diaminopropan-2-yl)apramycin] | 1 µg/mL (≈ 1.63 µM) | 8 µg/mL (≈ 13.1 µM) | 4 µg/mL (≈ 6.54 µM) | 2 µg/mL (≈ 3.27 µM) | 4 µg/mL (≈ 6.54 µM) | 4 µg/mL (≈ 6.54 µM) | – | – | – | – | – | – | – | – | – | – | – | – | – | – | MIC (S. marcescens GN6944): 4 µg/mL (≈ 6.54 µM); MIC (P. aeruginosa MSC17707): 4 µg/mL (≈ 6.54 µM); MIC [2]: 2 µg/mL (≈ 3.27 µM); MIC (E. faecium ATCC19434): 8 µg/mL (≈ 13.1 µM); MIC (S. aureus RN4220): 2 µg/mL (≈ 3.27 µM); MIC (S. aureus MF490): 4 µg/mL (≈ 6.54 µM); MIC [3]: 1 µg/mL (≈ 1.63 µM); MIC (S. marcescens TH-0447): 8 µg/mL (≈ 13.1 µM)
5 | CNC1C(OC2OC(CO)C(N)CC2O)OC2CC(N)C(OC3C(N)CC(N)C(O)C3O)OC2C1O (stereo not shown) [Compound M9, 3″-deoxy-5-epiapramycin] | – | – | – | – | – | – | 1 µg/mL (≈ 1.91 µM) | 4 µg/mL (≈ 7.64 µM) | 4 µg/mL (≈ 7.64 µM) | 2 µg/mL (≈ 3.82 µM) | 4 µg/mL (≈ 7.64 µM) | 2 µg/mL (≈ 3.82 µM) | 4 µg/mL (≈ 7.64 µM) | 4 µg/mL (≈ 7.64 µM) | 1 µg/mL (≈ 1.91 µM) | 8 µg/mL (≈ 15.3 µM) | 1 µg/mL (≈ 1.91 µM) | 4 µg/mL (≈ 7.64 µM) | 1 µg/mL (≈ 1.91 µM) | 4 µg/mL (≈ 7.64 µM) | –
